Values of other authors in article doi:10.1101/2023.05.15.540887, “Comparative analysis of drug-like EP300/CREBBP acetyltransferase inhibitors” (bioRxiv, 2023).

What was measured:
Set-up in all cases: method as in ref 29 (a number printed in a supplementary file, which may have a reference list of its own: not looked up in the article's list)
M14 = details: Melanoma M14; highest log conc -4.0; NCI-60 screen data; cited from earlier work
K-562 = details: Leukemia K-562; highest log conc -4.0; NCI-60 screen data; cited from earlier work
OVCAR-5 = details: Ovarian OVCAR-5; highest log conc -4.0; NCI-60 screen data; cited from earlier work
RXF393 = details: Renal RXF393; highest log conc -4.0; NCI-60 screen data; cited from earlier work
UACC-62 = details: Melanoma UACC-62; highest log conc -4.0; NCI-60 screen data; cited from earlier work
SF-539 = details: CNS SF-539; highest log conc -4.0; NCI-60 screen data; cited from earlier work
HOP-92 = details: Non-SmallCellLung HOP-92; highest log conc -4.0; NCI-60 screen data; cited from earlier work
U251 = details: CNS U251; highest log conc -4.0; NCI-60 screen data; cited from earlier work
KM12 = details: Colon KM12; highest log conc -4.0; NCI-60 screen data; cited from earlier work
PC-3 = details: Prostate PC-3; highest log conc -4.0; NCI-60 screen data; cited from earlier work
MCF7 = details: Breast MCF7; highest log conc -4.0; NCI-60 screen data; cited from earlier work
UACC-257 = details: Melanoma UACC-257; highest log conc -4.0; NCI-60 screen data; cited from earlier work
SK-MEL-5 = details: Melanoma SK-MEL-5; highest log conc -4.0; NCI-60 screen data; cited from earlier work
NCI-H322M = details: Non-SmallCellLung NCI-H322M; highest log conc -4.0; NCI-60 screen data; cited from earlier work
MOLT-4 = details: Leukemia MOLT-4; highest log conc -4.0; NCI-60 screen data; cited from earlier work
SNB-19 = details: CNS SNB-19; highest log conc -4.0; NCI-60 screen data; cited from earlier work
MALME-3M = details: Melanoma MALME-3M; highest log conc -4.0; NCI-60 screen data; cited from earlier work
MDA-MB-435 = details: Melanoma MDA-MB-435; highest log conc -4.0; NCI-60 screen data; cited from earlier work
MDA-MB-231/ATCC = details: Breast MDA-MB-231/ATCC; highest log conc -4.0; NCI-60 screen data; cited from earlier work
HOP-62 = details: Non-SmallCellLung HOP-62; highest log conc -4.0; NCI-60 screen data; cited from earlier work
LOXIMVI = details: Melanoma LOXIMVI; highest log conc -4.0; NCI-60 screen data; cited from earlier work

Row | Structure (SMILES) | GI50 AVGDATA (M14) | GI50 AVGDATA (K-562) | GI50 AVGDATA (OVCAR-5) | GI50 AVGDATA (RXF393) | GI50 AVGDATA (UACC-62) | GI50 AVGDATA (SF-539) | GI50 AVGDATA (HOP-92) | GI50 AVGDATA (U251) | GI50 AVGDATA (KM12) | GI50 AVGDATA (PC-3) | GI50 AVGDATA (MCF7) | GI50 AVGDATA (UACC-257) | GI50 AVGDATA (SK-MEL-5) | GI50 AVGDATA (NCI-H322M) | GI50 AVGDATA (MOLT-4) | GI50 AVGDATA (SNB-19) | GI50 AVGDATA (MALME-3M) | GI50 AVGDATA (MDA-MB-435) | GI50 AVGDATA (MDA-MB-231/ATCC) | GI50 AVGDATA (HOP-62) | also measured
1 | COC(=O)N1c2ccc3c(nc(Cc4ccccc4)n3[C@H]3CCC[C@H](C(=O)O)C3)c2CC[C@@H]1C [FT-6876] | -5.23 | -5.3 | -4.51 | -4.91 | -5.68 | -4.8 | -5.79 | -4.77 | -4.79 | -5.25 | -6.94 | -4.83 | -4.99 | -4.82 | -4.84 | -4.9 | -5.21 | -5.07 | -4.8 | -4.95 | GI50 AVGDATA (LOXIMVI): -5.99
2 | Cc1sc2c(c1C)C(c1ccc(Cl)cc1)=N[C@@H](CC(=O)OC(C)(C)C)c1nnc(C)n1-2 [JQ-1] | -6.11 | -7.24 | -4.98 | -6.13 | -7.16 | -6.34 | -7.74 | -5.91 | -6.02 | -5.96 | -7.22 | -6.83 | -6.47 | -6.53 | -5.74 | -6.38 | -5.32 | -6.87 | -6.52 | -6.92 | GI50 AVGDATA (LOXIMVI): -7.17
3 | CO[C@H]1CC[C@H](n2c([C@@H]3CCCC(=O)N3c3ccc(F)c(F)c3)nc3cc(-c4c(C)noc4C)ccc32)CC1 [inobrodib] | -5.73 | -5.55 | -4.77 | -5.32 | -5.6 | -5.01 | -5.69 | -4.99 | -4.86 | -5.46 | -6.2 | -5.59 | -5.24 | -4.94 | -4.77 | -5.03 | -5.76 | -5.1 | -5.07 | -5.35 | GI50 AVGDATA (LOXIMVI): -5.38
